Reference: ChEMBL document CHEMBL1201862, “PubChem BioAssay data set” (2004)
The source made the active and inactive calls.

Legend:
[1] = biological target: T1, Rac GTPase-activating protein 1 (Homo sapiens, UniProt Q9H0H5); experiment: blockers of MgcRacGAP-driven Rac1 GTP hydrolysis – biochemical, ADP Hunter fluorescence, primary and confirmatory, confirmation (AID 624330); format: functional
T1 sequence (Q9H0H5 whole entry): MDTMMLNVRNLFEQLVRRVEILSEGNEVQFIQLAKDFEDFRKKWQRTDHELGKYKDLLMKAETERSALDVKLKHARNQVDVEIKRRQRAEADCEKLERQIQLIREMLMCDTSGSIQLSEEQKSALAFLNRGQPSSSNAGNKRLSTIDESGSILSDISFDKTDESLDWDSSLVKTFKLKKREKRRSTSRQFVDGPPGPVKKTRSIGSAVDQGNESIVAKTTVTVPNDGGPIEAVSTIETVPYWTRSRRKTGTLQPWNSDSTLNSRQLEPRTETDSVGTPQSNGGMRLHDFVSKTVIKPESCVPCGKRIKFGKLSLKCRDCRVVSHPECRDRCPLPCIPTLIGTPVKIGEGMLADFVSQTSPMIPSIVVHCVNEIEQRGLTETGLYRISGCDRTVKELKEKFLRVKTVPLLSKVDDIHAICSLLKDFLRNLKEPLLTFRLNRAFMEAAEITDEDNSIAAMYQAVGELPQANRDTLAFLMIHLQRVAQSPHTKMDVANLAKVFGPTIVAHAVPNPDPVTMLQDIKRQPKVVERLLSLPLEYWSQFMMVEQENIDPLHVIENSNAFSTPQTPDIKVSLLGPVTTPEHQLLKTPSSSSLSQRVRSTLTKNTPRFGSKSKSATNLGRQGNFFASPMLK

[2] = Trypanosoma cruzi growth suppression in host cells – NIH3T3 host cells, beta-gal luminescence, confirmation (AID 2044); format: functional, cell-based;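 further: intracellular parasites grown in NIH/3T3 mouse fibroblasts as host cells; luminescent beta-galactosidase reporter signal from transgenic T. cruzi replicating inside host cells; inhibitors lower the luminescence signal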
[3] = NIH3T3 cell viability loss – ATP luminescence, mouse fibroblasts, counter-screen, dose response (AID 2010); format: functional, cell-based;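 further: cells exposed to compound for about 90 hours before reading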
Cytochrome P450 1A2 = biological target: T2, Cytochrome P450 1A2 (Homo sapiens, UniProt P05177);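 further: PubChem cytochrome P450 panel assay, CYP1A2 panel member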
T2 sequence (P05177 whole entry): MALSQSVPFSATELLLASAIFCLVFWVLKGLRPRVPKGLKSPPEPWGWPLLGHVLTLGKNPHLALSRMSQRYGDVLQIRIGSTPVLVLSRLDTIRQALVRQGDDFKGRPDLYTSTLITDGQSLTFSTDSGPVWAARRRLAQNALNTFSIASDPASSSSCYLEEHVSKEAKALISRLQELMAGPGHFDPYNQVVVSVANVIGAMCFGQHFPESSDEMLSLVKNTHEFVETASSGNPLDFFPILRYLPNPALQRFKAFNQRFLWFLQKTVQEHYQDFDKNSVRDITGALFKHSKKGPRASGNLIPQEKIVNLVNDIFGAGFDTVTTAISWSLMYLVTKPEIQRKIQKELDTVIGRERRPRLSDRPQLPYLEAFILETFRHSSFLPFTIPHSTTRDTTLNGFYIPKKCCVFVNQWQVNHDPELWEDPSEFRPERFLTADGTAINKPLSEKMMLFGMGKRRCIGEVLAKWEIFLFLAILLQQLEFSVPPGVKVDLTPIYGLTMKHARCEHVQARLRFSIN

[4] = biological target: T3, Heat shock factor protein 1 (Mus musculus, UniProt P38532); experiment: decrease of HSF1-responsive luciferase luminescence – cell-based, NIH3T3, dose retest, confirmation (AID 2382); format: functional;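 further: NIH3T3 fibroblasts with HSF1-driven luciferase reporter stressed by proteasome inhibitor MG132; luminescence from HSF1-driven luciferase expression after 8 hours of MG132 stress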
T3 sequence (P38532 whole entry): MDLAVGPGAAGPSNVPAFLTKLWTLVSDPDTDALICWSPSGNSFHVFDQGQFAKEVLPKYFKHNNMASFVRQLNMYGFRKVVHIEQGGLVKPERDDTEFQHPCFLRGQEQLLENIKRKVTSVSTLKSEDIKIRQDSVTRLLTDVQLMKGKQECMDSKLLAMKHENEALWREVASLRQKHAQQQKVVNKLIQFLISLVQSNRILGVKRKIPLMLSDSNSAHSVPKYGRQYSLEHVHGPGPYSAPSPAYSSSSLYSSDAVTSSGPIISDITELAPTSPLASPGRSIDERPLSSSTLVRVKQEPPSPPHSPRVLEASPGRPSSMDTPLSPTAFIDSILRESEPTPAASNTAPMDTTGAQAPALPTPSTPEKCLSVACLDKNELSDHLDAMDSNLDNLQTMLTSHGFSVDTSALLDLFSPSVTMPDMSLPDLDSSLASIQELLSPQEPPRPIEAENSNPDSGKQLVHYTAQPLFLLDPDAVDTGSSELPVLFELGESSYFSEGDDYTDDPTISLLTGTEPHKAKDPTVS

Cytochrome P450 2C19 = Cytochrome P450 2C19 (Homo sapiens, UniProt P33261); experiment: Cytochrome panel assay with activity outcomes. Panel member name: p450-cyp2c19 Compounds with AC50 equal or less than 10 uM are considered active; format: functional
Chain of Cytochrome P450 2C19 (P33261 whole entry): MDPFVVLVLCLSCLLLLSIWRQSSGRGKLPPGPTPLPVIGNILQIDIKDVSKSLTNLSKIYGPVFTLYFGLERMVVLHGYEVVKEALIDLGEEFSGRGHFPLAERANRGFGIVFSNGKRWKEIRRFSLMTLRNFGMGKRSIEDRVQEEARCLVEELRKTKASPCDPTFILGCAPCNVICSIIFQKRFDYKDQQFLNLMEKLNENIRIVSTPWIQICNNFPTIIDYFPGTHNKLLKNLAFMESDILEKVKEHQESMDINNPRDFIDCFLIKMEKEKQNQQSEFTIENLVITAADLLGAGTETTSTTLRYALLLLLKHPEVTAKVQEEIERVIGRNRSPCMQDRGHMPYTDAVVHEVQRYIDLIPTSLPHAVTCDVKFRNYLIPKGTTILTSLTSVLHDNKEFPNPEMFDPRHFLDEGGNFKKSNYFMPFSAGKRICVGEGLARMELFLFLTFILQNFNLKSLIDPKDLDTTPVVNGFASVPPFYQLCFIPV

[5] = viability of uninfected HEp-2 cells – cell-based, HTS, cytotoxicity control for RSV inhibitor project, dose response (AID 2410); format: functional; settings: human respiratory syncytial virus

## COc1cc(CN2CCC(C(=O)N3CCN(c4ccccc4F)CC3)CC2)ccc1O
[1]
  IC50: 110 µM (active)

## Nc1nc2c(s1)CCc1ccccc1-2
[1]
  IC50: 41.4 µM (active)

## Cc1cc(C)c(S(=O)(=O)c2ccccc2Cl)c(Cl)n1
[2]
  EC50: 2.32 µM (active)
[3]
  EC50: > 60 µM (not active)

## COc1nc(OCCNC(C)=O)nc(N(C)C)n1
Cytochrome P450 1A2
  AC50: 39.8 µM (inconclusive)

## CCC(=O)N(CCC(c1ccco1)c1ccccc1OC)Cc1cccs1 (stereo not drawn)
[4]
  EC50: > 195 µM (not active)

## Nc1ccc(N2CCCCC2)c(Cl)c1
[1]
  IC50: 46.4 µM (active)

## O=C(O)CCC(=O)CCC(=O)c1ccccc1
Cytochrome P450 2C19; read-out: AC50
  AC50: 39.8 µM (inconclusive)

## COc1ccc(CC(=O)NCc2ccccn2)cc1OC
Cytochrome P450 1A2
  AC50: 14.1 µM (inconclusive)

## COc1ccccc1/C=C/[C@@H]1C[C@H]2CN(Cc3cccc(Cl)c3)C(=O)[C@]23CCCN13
[5]
  CC50: 38.4 µM (active)

## O=c1c(CCc2ccccc2)nc2cncnc2n1Cc1ccccc1Cl
Cytochrome P450 1A2
  AC50: 12.6 µM (inconclusive)

## O=C(O)[C@H](Cc1c[nH]c2ccccc12)N1C(=O)c2ccccc2C1=O
Cytochrome P450 2C19
  AC50: inconclusive

## Cc1ccc2nc(-c3ccncc3)cc(C(=O)NCCc3ccc(F)cc3)c2c1
[2]
  EC50: 1.7 µM (active)
[3]
  EC50: > 60 µM (not active)

## Cc1ccc(Nc2c([N+](=O)[O-])nn(-c3ccc(Cl)cc3)[n+]2[O-])cc1C
[2]
  EC50: 0.747 µM (active)
[3]
  EC50: > 60 µM (not active)

## CCCCNc1[nH]c(=S)nc2cc(OC)c(OC)cc12
[1]
  IC50: 61.8 µM (active)

## CCCCc1c(O)nc2ccc(C)cc2c1C
[5]
  CC50: 26.6 µM (active)

## CN(C)c1oc(-c2ccc(OCc3ccc(Cl)cc3)cc2)nc1C#N
[2]
  EC50: 8.31 µM (active)
[3]
  EC50: > 60 µM (not active)

## CCOC(=O)N1CCN(C(=O)c2ccc(NC(C)=O)cc2)CC1
Cytochrome P450 2C19; read-out: AC50
  AC50: 22.4 µM (inconclusive)

## O=C(NCc1ccccc1Cl)c1cnccn1
Cytochrome P450 1A2
  AC50: 28.2 µM (inconclusive)
Cytochrome P450 2C19; read-out: AC50
  AC50: 20 µM (inconclusive)

## COc1ccc([C@H]2CN(c3ccc(OC)cc3)C(=O)[C@@H]2CC(=O)Nc2ccccc2)cc1
[1]
  IC50: 115 µM (active)

## N#Cc1c(O)nsc1Nc1ccccc1
[1]
  IC50: 79.5 µM (active)

## O=C1NC(=O)/C(=C/c2cccc([N+](=O)[O-])c2)N1
[5]
  CC50: 31.2 µM (active)

## Oc1ccc(/C=N/Nc2cc(N3CCOCC3)nc(N3CCOCC3)n2)cc1
[1]
  IC50: 45.3 µM (active)

## Cc1ccc(-c2ccc(/C=N\NC(=O)C3C(=O)NCC3c3ccccc3)o2)cc1Cl (stereo not drawn)
[5]
  CC50: 13 µM (active)

## C/C(=N\c1ccc(O)cc1)c1sc2ccccc2c1O
[1]
  IC50: 123 µM (active)

## O=C(N/N=C/c1ccc([N+](=O)[O-])o1)C1CCCC1
[2]
  EC50: 0.429 µM (active)
[3]
  EC50: > 60 µM (not active)

## C/C(=N\NC(=O)c1cc(-c2cccc(OC(C)C)c2)nc2ccccc12)c1cccnc1
[2]
  EC50: 0.611 µM (active)
[3]
  EC50: > 30 µM (not active)

## Cc1ccc(-c2n[nH]cc2/C=N/n2c(C)nc3ccccc3c2=O)cc1
[4]
  EC50: > 195 µM (not active)

## C/C(Cc1ccccc1)=N\NC(=O)CNC(=O)Cc1ccc(Cl)cc1
[4]
  EC50: > 195 µM (not active)

## CCOc1cc(/C=N/NC(=O)c2ccc(=O)n(C)c2)ccc1O
[1]
  IC50: 59.6 µM (active)

## O=C1Nc2ccc(S(=O)(=O)O)cc2/C1=N/Nc1ccccc1[N+](=O)[O-]
Cytochrome P450 1A2
  AC50: 1 µM (inconclusive)

## NNC(N)=O [HYDRAZINECARBOXAMIDE]
Cytochrome P450 1A2
  AC50: 39.8 µM (inconclusive)
